Literature values, collected in patent US20190105332A1, “METHODS OF TREATING PROSTATE CANCER” (Janssen Oncology, Inc., priority 2017, published 2019).
Like-named read-outs stand apart in the source and are kept apart here. One block for each compound: values may come before it.

Experiments:
[1] = for activity of metabolite / share of exposure as circulating metabolite in human plasma: in vivo
CYP3A4 [2] = target: T1, CYP3A4 (Homo sapiens, UniProt P08684); parameters: from tissue; host or cells: in vivo, healthy human subjects (endogenous enzyme); settings: healthy subjects
T1 sequence (P08684 whole entry): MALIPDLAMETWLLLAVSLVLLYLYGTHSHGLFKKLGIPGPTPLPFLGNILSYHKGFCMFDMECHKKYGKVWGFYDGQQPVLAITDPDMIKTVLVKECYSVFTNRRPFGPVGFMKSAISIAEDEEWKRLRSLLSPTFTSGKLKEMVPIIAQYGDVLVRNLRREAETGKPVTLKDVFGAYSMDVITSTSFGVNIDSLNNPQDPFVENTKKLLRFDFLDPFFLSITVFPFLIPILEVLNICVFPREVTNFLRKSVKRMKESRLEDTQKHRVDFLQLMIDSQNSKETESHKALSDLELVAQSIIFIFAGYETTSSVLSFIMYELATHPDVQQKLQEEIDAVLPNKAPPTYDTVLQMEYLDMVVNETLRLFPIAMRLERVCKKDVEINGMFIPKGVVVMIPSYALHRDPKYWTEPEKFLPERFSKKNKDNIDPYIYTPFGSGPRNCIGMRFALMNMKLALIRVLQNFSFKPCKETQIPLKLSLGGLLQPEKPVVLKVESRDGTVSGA

CYP2D6 = target: T2, CYP2D6 (Homo sapiens, UniProt P10635); settings: human hepatic microsomes
T2 construct: from tissue; host or cells: in vivo, trial participants (endogenous hepatic enzyme)
T2 sequence (P10635 whole entry): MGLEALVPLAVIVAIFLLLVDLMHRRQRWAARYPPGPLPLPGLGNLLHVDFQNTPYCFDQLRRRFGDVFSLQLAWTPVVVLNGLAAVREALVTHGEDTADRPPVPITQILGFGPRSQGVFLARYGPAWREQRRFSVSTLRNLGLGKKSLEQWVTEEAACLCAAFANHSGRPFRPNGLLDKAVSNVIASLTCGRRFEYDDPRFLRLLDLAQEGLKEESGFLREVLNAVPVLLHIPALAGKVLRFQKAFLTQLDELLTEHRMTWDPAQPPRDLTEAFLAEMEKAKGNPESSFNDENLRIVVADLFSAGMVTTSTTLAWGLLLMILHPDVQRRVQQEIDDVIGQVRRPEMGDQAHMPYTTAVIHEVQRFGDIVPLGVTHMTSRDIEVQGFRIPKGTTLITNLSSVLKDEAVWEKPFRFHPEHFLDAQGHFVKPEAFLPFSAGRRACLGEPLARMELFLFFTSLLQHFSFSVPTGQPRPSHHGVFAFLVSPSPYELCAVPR

[3] = test system: primary human lymphocytes
CYP3A4 [4] = target: T1, CYP3A4; settings: in vitro
[5] = rat micronucleus assay
CYP1A2 = target: T3, CYP1A2 (Homo sapiens, UniProt P05177); parameters: In vitro studies with human hepatic microsomes; from tissue; host or cells: human hepatic microsomes; settings: human hepatic microsomes
T3 sequence (P05177 1-516): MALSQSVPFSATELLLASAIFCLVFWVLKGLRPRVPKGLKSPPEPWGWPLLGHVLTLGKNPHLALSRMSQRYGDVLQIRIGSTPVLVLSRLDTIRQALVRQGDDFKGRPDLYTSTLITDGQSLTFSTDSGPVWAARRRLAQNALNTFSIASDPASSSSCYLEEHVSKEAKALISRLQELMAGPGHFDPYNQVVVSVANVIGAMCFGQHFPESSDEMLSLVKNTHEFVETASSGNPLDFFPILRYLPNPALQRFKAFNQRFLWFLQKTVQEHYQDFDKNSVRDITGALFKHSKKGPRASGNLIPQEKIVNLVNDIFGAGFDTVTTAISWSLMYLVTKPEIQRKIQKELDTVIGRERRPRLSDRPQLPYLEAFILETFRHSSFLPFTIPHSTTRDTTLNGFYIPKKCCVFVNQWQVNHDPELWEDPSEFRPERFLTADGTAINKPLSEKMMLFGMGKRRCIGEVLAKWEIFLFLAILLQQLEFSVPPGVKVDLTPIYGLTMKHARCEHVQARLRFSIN

[6] = not given; remark: listed apart in the source
CYP2C9 = target: T4, CYP2C9 (Homo sapiens, UniProt P11712); settings: human hepatic microsomes
T4 construct: In vitro studies with human hepatic microsomes; from tissue; host or cells: human hepatic microsomes
T4 sequence (P11712 whole entry): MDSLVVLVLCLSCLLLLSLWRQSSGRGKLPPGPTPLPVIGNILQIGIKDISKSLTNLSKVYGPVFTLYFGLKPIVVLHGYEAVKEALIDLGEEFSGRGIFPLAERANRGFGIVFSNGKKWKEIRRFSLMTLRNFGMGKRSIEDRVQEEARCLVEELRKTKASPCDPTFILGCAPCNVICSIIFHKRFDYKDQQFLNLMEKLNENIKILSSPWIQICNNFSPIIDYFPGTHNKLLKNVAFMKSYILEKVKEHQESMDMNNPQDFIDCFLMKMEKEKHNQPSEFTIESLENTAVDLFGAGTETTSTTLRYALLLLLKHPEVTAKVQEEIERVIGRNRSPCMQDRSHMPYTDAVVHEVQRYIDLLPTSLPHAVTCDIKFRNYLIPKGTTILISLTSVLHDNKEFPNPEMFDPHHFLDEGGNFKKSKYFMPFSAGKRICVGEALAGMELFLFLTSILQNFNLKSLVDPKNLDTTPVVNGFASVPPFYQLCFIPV

[7] = test system: human plasma proteins, albumin and alpha-1 acid glycoprotein
OATP1B1 = target: T5, OATP1B1 (Homo sapiens, UniProt Q9Y6L6); settings: in vitro
T5 sequence (Q9Y6L6 1-691): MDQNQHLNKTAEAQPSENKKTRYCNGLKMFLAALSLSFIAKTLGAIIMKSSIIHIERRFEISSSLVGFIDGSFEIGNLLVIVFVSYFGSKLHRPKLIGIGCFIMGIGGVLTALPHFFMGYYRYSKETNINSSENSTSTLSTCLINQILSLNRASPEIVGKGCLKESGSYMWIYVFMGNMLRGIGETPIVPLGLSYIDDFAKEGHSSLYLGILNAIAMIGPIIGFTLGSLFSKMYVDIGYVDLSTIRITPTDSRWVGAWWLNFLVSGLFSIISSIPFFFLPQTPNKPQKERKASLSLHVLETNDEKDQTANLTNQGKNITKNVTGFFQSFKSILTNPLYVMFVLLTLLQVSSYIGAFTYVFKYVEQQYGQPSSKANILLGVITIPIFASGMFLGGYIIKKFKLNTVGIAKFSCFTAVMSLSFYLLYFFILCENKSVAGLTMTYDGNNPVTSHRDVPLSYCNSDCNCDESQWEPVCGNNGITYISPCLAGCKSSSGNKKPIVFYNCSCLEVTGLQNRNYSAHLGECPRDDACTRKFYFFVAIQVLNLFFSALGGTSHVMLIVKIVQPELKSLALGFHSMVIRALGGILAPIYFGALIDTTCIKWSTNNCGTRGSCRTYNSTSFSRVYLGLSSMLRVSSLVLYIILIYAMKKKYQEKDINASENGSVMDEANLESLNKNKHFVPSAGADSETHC

P-glycoprotein (P-gp) = P-glycoprotein (P-gp) (Homo sapiens, UniProt P08183); settings: in vitro, clinically relevant concentrations
Sequence of P-glycoprotein (P-gp) (P08183 whole entry): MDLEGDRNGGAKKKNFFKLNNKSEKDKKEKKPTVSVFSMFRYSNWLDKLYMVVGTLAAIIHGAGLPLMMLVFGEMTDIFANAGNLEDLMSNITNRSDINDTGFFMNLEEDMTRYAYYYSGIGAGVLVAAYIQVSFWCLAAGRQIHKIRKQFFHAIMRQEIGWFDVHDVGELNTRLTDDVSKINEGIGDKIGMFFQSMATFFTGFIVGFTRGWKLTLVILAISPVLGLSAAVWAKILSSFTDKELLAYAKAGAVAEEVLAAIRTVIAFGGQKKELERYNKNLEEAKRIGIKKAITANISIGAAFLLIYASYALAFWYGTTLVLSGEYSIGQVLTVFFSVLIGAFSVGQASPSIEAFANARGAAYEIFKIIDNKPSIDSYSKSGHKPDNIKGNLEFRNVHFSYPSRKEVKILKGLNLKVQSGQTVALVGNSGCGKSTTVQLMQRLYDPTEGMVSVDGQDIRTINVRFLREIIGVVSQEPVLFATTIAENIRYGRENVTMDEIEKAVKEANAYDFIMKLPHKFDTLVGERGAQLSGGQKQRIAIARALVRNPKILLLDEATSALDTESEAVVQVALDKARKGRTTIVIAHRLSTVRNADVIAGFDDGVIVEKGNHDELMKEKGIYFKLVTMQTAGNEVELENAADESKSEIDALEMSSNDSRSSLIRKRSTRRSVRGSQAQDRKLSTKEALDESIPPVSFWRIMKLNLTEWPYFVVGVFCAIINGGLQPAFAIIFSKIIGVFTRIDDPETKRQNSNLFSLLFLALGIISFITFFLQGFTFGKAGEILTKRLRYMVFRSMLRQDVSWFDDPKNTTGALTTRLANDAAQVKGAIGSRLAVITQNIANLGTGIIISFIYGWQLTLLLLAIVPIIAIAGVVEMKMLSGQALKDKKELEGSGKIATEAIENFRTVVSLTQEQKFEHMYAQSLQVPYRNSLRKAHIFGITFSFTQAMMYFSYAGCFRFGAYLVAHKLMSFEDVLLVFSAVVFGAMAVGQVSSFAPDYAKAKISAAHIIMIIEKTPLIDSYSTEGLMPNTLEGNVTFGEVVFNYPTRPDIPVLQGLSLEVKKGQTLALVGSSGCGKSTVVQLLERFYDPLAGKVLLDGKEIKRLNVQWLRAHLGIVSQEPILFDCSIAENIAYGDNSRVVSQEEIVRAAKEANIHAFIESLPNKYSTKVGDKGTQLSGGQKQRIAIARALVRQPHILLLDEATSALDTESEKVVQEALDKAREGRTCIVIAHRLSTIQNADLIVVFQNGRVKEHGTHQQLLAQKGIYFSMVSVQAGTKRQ

[8] = end-stage renal disease on dialysis; single oral 1,000 mg dose
[9] = not given; remark: listed apart in the source
[10] = healthy subjects, single dose with high-fat (57% fat, 825 calories) meal
[11] = healthy subjects, single dose with low-fat meal (7% fat, 300 calories)

share of exposure as circulating metabolite in human plasma [1]: about 43%
Compound: C[C@]12CC[C@H](OS(=O)(=O)O)CC1=CC[C@@H]1[C@@H]2CC[C@]2(C)C(c3ccc[n+]([O-])c3)=CC[C@@H]12 [N-oxide abiraterone sulphate]
activity of metabolite [1]: inactive

share of exposure as circulating metabolite in human plasma [1]: about 43%
Compound: abiraterone sulphate
activity of metabolite [1]: inactive

effect of ketoconazole co-administration on pharmacokinetics (CYP3A4 [2]): no clinically meaningful effect
decrease of exposure (mean plasma AUC∞) with rifampin (CYP3A4 [2]; rifampin 600 mg daily for 6 days, then single 1,000 mg abiraterone acetate): 55%
inhibition of CYP2D6 (CYP2D6): potential to inhibit
steady-state Cmax (mean±SD) (1,000 mg daily, patients with metastatic CRPC): 226 ± 178 ng/mL
increase in the mean AUC when dose doubled (from 1,000 to 2,000 mg): 8%
accumulation: steady-state AUC compared to a single 1,000 mg dose (human, in vivo): 2 fold
median time to reach maximum plasma abiraterone concentrations (oral abiraterone acetate, patients with metastatic CRPC): 2 h
substrate of CYP3A4 (CYP3A4 [4]): substrate
inhibition of CYP1A2 (CYP1A2): potential to inhibit
mean half-life ([6]; mild hepatic impairment): approximately 18 hours
mean half-life ([6]; moderate hepatic impairment): approximately 19 hours
systemic exposure (AUC) increase vs normal hepatic function ([6]; moderate hepatic impairment (Child-Pugh Class B), single oral 1,000 mg dose): ~3.6 fold
systemic exposure (AUC) increase vs normal hepatic function ([6]; severe hepatic impairment (Child-Pugh Class C)): approximately 7 fold
inhibition of CYP2C9 (CYP2C9): to a lesser extent
bound to human plasma proteins [7]: > 99%
compound present in feces, share of the administered dose ([1]; oral 14C-abiraterone acetate): ~22%
inhibition of hepatic uptake transporter OATP1B1 (OATP1B1): inhibit
substrate of P-glycoprotein (P-gp) (P-glycoprotein (P-gp)): not substrates
systemic exposure vs normal renal function [8]: did not increase
AUC0-∞, fold higher vs overnight fasting [9, 10]: ~10 fold
Cmax, fold higher vs overnight fasting [9, 10]: approximately 17 fold
AUC0-∞, fold higher vs overnight fasting [9, 11]: ~5 fold
Cmax, fold higher vs overnight fasting [9, 11]: approximately 7 fold
systemic exposure increase vs dosing away from meals ([9]; patients with metastatic CRPC, repeated dosing with high-fat meals for 7 days): approximately 2 fold
systemic exposure vs dosing away from meals ([9]; patients with metastatic CRPC, repeated dosing with low-fat meals for 7 days): similar
AUC0-∞, fold higher vs overnight fasting ([9]; single dose 1 hour before a medium fat meal (25% fat, 491 calories)): ~1.6 fold
AUC0-∞, fold higher vs overnight fasting ([9]; single dose 2 hours after a medium fat meal (25% fat, 491 calories)): approximately 7 fold
Compound: C[C@]12CC[C@H](O)CC1=CC[C@@H]1[C@@H]2CC[C@]2(C)C(c3cccnc3)=CC[C@@H]12 [abiraterone]
dose proportionality (dose range of 250 mg to 1,000 mg): No major deviation from dose proportionality
clastogenicity in vitro [3]: not mutagenic in an in vitro microbial mutagenesis (Ames) assay or clastogenic
clastogenicity in vivo [5]: not mutagenic in an in vitro microbial mutagenesis (Ames) assay or clastogenic
